These results are taken from patent US20240150345A1, “GCN2 MODULATING COMPOUNDS AND USES THEREOF” (HiberCell, Inc., priority 2021, published 2024).

As usually defined, the pIC50 is −log10 of the IC50, conventionally taken in molar units. Low readings indicate a high IC50, high ones a low IC50.

pIC50: −log10 of the molar value.

The target in the assay is T1, GCN2 (Homo sapiens, UniProt Q9P2K8).
T1 construct: purchased Carma Biosciences (so in the source)
T1 sequence (Q9P2K8 whole entry): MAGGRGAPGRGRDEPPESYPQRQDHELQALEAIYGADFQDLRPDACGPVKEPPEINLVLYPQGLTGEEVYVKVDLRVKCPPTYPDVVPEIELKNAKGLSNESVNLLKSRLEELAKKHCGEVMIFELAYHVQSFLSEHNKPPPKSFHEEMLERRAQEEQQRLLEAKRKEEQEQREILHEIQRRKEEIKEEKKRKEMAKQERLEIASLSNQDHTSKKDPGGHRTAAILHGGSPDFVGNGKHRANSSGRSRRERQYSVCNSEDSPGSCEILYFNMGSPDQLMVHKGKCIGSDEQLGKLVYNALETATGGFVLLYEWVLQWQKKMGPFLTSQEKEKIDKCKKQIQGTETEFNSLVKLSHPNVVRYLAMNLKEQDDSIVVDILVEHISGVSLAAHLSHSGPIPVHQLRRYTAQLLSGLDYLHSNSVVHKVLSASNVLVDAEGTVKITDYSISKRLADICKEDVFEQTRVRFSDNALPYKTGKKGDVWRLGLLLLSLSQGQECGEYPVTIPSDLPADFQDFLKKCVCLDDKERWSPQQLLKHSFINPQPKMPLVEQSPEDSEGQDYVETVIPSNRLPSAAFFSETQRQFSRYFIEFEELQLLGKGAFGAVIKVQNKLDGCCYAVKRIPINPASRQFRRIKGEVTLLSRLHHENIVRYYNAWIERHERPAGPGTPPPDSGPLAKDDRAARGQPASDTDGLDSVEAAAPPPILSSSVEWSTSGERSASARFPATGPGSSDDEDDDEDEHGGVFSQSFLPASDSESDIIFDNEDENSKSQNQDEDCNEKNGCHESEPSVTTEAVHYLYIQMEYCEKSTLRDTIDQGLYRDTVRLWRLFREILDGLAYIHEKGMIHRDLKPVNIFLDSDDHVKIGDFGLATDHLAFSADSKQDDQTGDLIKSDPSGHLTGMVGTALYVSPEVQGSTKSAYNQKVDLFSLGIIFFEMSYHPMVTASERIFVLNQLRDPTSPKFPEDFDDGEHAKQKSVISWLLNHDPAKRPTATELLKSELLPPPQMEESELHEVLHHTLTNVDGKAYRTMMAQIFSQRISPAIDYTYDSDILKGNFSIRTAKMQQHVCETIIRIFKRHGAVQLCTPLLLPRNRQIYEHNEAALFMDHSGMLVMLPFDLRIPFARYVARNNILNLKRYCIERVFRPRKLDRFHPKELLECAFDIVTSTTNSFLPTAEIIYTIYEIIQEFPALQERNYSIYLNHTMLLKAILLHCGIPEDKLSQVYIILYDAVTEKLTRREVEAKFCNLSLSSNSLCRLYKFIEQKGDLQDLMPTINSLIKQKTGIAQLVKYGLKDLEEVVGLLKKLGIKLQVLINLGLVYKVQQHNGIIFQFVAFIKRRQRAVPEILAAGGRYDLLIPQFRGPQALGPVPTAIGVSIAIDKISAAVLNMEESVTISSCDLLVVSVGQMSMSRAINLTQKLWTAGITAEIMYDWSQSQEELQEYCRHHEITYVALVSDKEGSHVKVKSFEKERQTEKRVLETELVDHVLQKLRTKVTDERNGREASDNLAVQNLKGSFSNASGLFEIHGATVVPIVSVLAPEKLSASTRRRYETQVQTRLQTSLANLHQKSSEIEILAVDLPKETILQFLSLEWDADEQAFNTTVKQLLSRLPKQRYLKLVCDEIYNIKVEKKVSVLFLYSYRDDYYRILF
Briefly: TR-FRET biochemical assay for inhibition of GCN2 activity. Particulars: 2 nM GCN2, 100 nM GFP-eIF2α, 150 μM ATP, 1.5 hours at 25° C. As to the method:
Exemplary compounds from the above Examples were tested for ability to inhibit GCN2 activity using a time resolved fluorescence energy transfer (TR-FRET) assay. Assay procedures and results are described below for Examples 12-105.
GCN2 protein was obtained from Carma Biosciences (cat #05-153). The protein was diluted in assay buffer (ThermoFisher Scientific, #PV6135), 2 mM dithiothreitol (DTT), to obtain a final concentration of 2 nM and 5 μL was plated in a 384-well white assay plate. Test compounds were serially diluted to 11 concentrations by 3-fold dilution in DMS0 and 10 nL of stock was plated into 384 well white assay plate. DMS0 was used as a vehicle control. GFP-eIF2α protein was obtained from ThermoFisher (cat #PV4809). The protein was diluted in assay buffer to a 2× concentration of 200 nM along with 300 μM ATP (final concentration of 100 nM GFP-eIF2α and 150 μM ATP) in the presence of 2 mM DTT and a […] was added to each well containing the GCN2 protein and test compound. The plate was incubated in the dark at 25° C. for 1.5 hours, shaking at 1250 rpm. Tb-anti P-eIF2α (ThermoFisher cat #PV4815) was diluted to a to a concentration of 1 nM in TR-FRET Dilution Buffer (ThermoFisher cat #PV3574). 10 μL of the Tb-anti P-eIF2a solution was added to the TR-FRET reaction. The plate was incubated in the dark for 2 h at 25° C. shaking at 600 rpm. The FRET signal from the plate was read on a Envision (PerkinElmer) plate reader: • Label 1: Excitation: 340 nm, bandwidth 30 nm; Emission: 495 nm, bandwidth 10 nm. Lag time: 100 μsec. Integration time: 400 μsec. Flashes: 30. • Label 2: Excitation: 340 nm, bandwidth 30 nm; Emission: 520 nm, bandwidth 25 nm. Lag time: 100 μsec. Integration time: 400 μsec. Flashes: 30
The data were analyzed using GraphPad Prism employing a 4-parameter sigmoidal curve fit.
(In general: TR-FRET usually uses a lanthanide donor and a delayed reading to cut background.)
Regarding `COc1ncc(Cl)cc1S(=O)(=O)Nc1ccc(F)c(COc2cnc3[nH]ncc3c2)c1F` [Compound 1, 5-chloro-N-[2,4-difluoro-3-([1H-pyrazolo[3,4-b]pyridin-5-yloxy]methyl)phenyl]-2-methoxypyridine-3-sulfonamide], the pIC50 is over 7.30.
In the case of `COc1ncc(F)cc1S(=O)(=O)Nc1ccc(F)c(COc2cnc3[nH]nc(C)c3c2)c1F` [Compound 2, N-[2,4-difluoro-3-[([3-methyl-1H-pyrazolo[3,4-b]pyridin-5-yl]oxy)methyl]phenyl]-5-fluoro-2-methoxypyridine-3-sulfonamide] it was over 7.30; in that of `COc1ncc(Cl)cc1S(=O)(=O)Nc1ccc(F)c(CNc2cnc3[nH]ncc3c2)c1F` [Compound 3, 5-chloro-N-[2,4-difluoro-3-([1H-pyrazolo[3,4-b]pyridin-5-ylamino]methyl)phenyl]-2-methoxypyridine-3-sulfonamide], 6.30 to 7.30.
For `COc1ncc(Cl)cc1S(=O)(=O)Nc1ccc(F)c(OCc2cnc3[nH]ncc3c2)c1F` [Compound 4, 5-chloro-N-(2,4-difluoro-3-[1H-pyrazolo[3,4-b]pyridin-5-ylmethoxy]phenyl)-2-methoxypyridine-3-sulfonamide], the pIC50 is over 7.30.
The value for `COc1ncc(Cl)cc1S(=O)(=O)Nc1ccc(F)c(CCc2cnc3n2CCOC3)c1F` [Compound 5, 5-chloro-N-[2,4-difluoro-3-(2-[5H,6H,8H-imidazo[2,1-c][1,4]oxazin-3-yl]ethyl)phenyl]-2-methoxypyridine-3-sulfonamide] was under 6.00.
`COc1ncc(Cl)cc1S(=O)(=O)Nc1ccc(F)c(NCc2cnc3[nH]ncc3c2)c1F` [Compound 6, 5-chloro-N-[2,4-difluoro-3-([1H-pyrazolo[3,4-b]pyridin-5-ylmethyl]amino)phenyl]-2-methoxypyridine-3-sulfonamide] showed a pIC50 of 6.30 to 7.30.
In the case of `COc1ncc(Cl)cc1S(=O)(=O)Nc1ccc(F)c(CCc2cnc3[nH]ncc3c2)c1F` [Compound 7, 5-chloro-N-[2,4-difluoro-3-(2-[1H-pyrazolo[3,4-b]pyridin-5-yl]ethyl)phenyl]-2-methoxypyridine-3-sulfonamide] it was over 7.30; in that of `CNC(=O)c1cc(CCc2c(F)ccc(NS(=O)(=O)c3cc(Cl)cnc3OC)c2F)[nH]n1` [Compound 8, 5-[2-[3-(5-chloro-2-methoxypyridine-3-sulfonamido)-2,6-difluorophenyl]ethyl]-N-methyl-1H-pyrazole-3-carboxamide], over 7.30; in that of `Cc1ncc(F)cc1S(=O)(=O)Nc1ccc(F)c(CCc2cnc3[nH]ncc3c2)c1F` [Compound 9, N-(3-(2-(1H-pyrazolo[3,4-b]pyridin-5-yl)ethyl)-2,4-difluorophenyl)-5-fluoro-2-methylpyridine-3-sulfonamide], over 7.30.
`COc1ncc(C#N)cc1S(=O)(=O)Nc1ccc(F)c(CCc2cnc3[nH]ncc3c2)c1F` [Compound 10, 5-cyano-N-[2,4-difluoro-3-(2-[1H-pyrazolo[3,4-b]pyridin-5-yl]ethyl)phenyl]-2-methoxypyridine-3-sulfonamide]: the pIC50 is over 7.30.
The value for `COc1ncc(Cl)cc1S(=O)(=O)Nc1ccc(F)c(CCc2ccc3[nH]ncc3n2)c1F` [Compound 11, 5-chloro-N-[2,4-difluoro-3-(2-[1H-pyrazolo[4,3-b]pyridin-5-yl]ethyl)phenyl]-2-methoxypyridine-3-sulfonamide] was under 6.00.
In the case of `COc1ncc(Cl)cc1S(=O)(=O)Nc1ccc(F)c(CCc2cnc3[nH]ccc3c2)c1F` [Compound 12, 5-chloro-N-[2,4-difluoro-3-(2-[1H-pyrrolo[2,3-b]pyridin-5-yl]ethyl)phenyl]-2-methoxypyridine-3-sulfonamide] it was over 7.30.
In the case of `COc1ncc(Cl)cc1S(=O)(=O)Nc1ccc(F)c(CCc2cc3cn[nH]c3cn2)c1F` [Compound 13, 5-chloro-N-[2,4-difluoro-3-(2-[1H-pyrazolo[3,4-c]pyridin-5-yl]ethyl)phenyl]-2-methoxypyridine-3-sulfonamide] it was under 6.00; in that of `COc1ncc(Cl)cc1S(=O)(=O)Nc1ccc(F)c(COc2cnc3[nH]nc(C)c3c2)c1F` [Compound 14, 5-chloro-N-[2,4-difluoro-3-[([3-methyl-1H-pyrazolo[3,4-b]pyridin-5-yl]oxy)methyl]phenyl]-2-methoxypyridine-3-sulfonamide], over 7.30; in that of `COc1ncc(F)cc1S(=O)(=O)Nc1ccc(F)c(CCc2cnc3[nH]ncc3c2)c1F` [Compound 15, N-[2,4-difluoro-3-(2-[1H-pyrazolo[3,4-b]pyridin-5-yl]ethyl)phenyl]-5-fluoro-2-methoxypyridine-3-sulfonamide], over 7.30.
As to `N#Cc1cc(C(F)(F)F)cc(S(=O)(=O)Nc2ccc(F)c(CCc3cnc4[nH]ncc4c3)c2F)c1` [Compound 16, 3-cyano-N-[2,4-difluoro-3-(2-[1H-pyrazolo[3,4-b]pyridin-5-yl]ethyl)phenyl]-5-(trifluoromethyl)benzenesulfonamide], the negative-log IC50 (pIC50) was 6.30 to 7.30.
The value for `COc1ncc(Cl)cc1S(=O)(=O)Nc1ccc(F)c(CCc2cnc3cn(C)nc3c2)c1F` [Compound 17, 5-chloro-N-[2,4-difluoro-3-(2-[2-methylpyrazolo[4,3-b]pyridin-6-yl]ethyl)phenyl]-2-methoxypyridine-3-sulfonamide] was over 7.30; that for `COc1ncc(Cl)cc1S(=O)(=O)Nc1ccc(F)c(CCc2cnc3cnn(C)c3c2)c1F` [Compound 18, 5-chloro-N-[2,4-difluoro-3-(2-[1-methylpyrazolo[4,3-b]pyridin-6-yl]ethyl)phenyl]-2-methoxypyridine-3-sulfonamide] was over 7.30; that for `COc1ncc(Cl)cc1S(=O)(=O)Nc1ccc(F)c(CCc2ccn3cncc3c2)c1F` [Compound 19, 5-chloro-N-[2,4-difluoro-3-(2-[imidazo[1,5-a]pyridin-7-yl]ethyl)phenyl]-2-methoxypyridine-3-sulfonamide] was under 6.00.
In the case of `COc1ncc(F)cc1S(=O)(=O)Nc1ccc(F)c(COc2cnc3[nH]ncc3c2C)c1F` [Compound 20, N-[2,4-difluoro-3-[([4-methyl-1H-pyrazolo[3,4-b]pyridin-5-yl]oxy)methyl]phenyl]-5-fluoro-2-methoxypyridine-3-sulfonamide] it was 6.30 to 7.30; in that of `COc1ncc(F)cc1S(=O)(=O)Nc1ccc(F)c(COc2cnc3[nH]ncc3c2)c1F` [Compound 21, N-[2,4-difluoro-3-([1H-pyrazolo[3,4-b]pyridin-5-yloxy]methyl)phenyl]-5-fluoro-2-methoxypyridine-3-sulfonamide], over 7.30; in that of `COc1ncc(Cl)cc1S(=O)(=O)Nc1ccc(F)c(COc2cnc3[nH]ncc3c2C)c1F` [Compound 22, 5-chloro-N-[2,4-difluoro-3-[([4-methyl-1H-pyrazolo[3,4-b]pyridin-5-yl]oxy)methyl]phenyl]-2-methoxypyridine-3-sulfonamide], over 7.30.
Regarding `COc1ncc(F)cc1S(=O)(=O)Nc1ccc(F)c(COc2cnc3[nH]ncc3c2OC)c1F` [Compound 23, N-[2,4-difluoro-3-[([4-methoxy-1H-pyrazolo[3,4-b]pyridin-5-yl]oxy)methyl]phenyl]-5-fluoro-2-methoxypyridine-3-sulfonamide], the pIC50 is 6.30 to 7.30.
Turning to `COc1ncc(Cl)cc1S(=O)(=O)Nc1ccc(F)c(COc2cnc3[nH]ncc3c2OC)c1F` [Compound 24, 5-chloro-N-[2,4-difluoro-3-[([4-methoxy-1H-pyrazolo[3,4-b]pyridin-5-yl]oxy)methyl]phenyl]-2-methoxypyridine-3-sulfonamide], the pIC50 is over 7.30.
The value for `COc1ncc(Cl)cc1S(=O)(=O)Nc1ccc(F)c(C(C)Oc2cnc3[nH]ncc3c2)c1F` (stereo not shown) [Compound 25, 5-chloro-N-[2,4-difluoro-3-(1-[1H-pyrazolo[3,4-b]pyridin-5-yloxy]ethyl)phenyl]-2-methoxypyridine-3-sulfonamide] was 6.00 to 6.30; that for `COc1ncc(C#N)cc1S(=O)(=O)Nc1ccc(F)c(COc2cnc3[nH]ncc3c2)c1F` [Compound 26, 5-cyano-N-[2,4-difluoro-3-([1H-pyrazolo[3,4-b]pyridin-5-yloxy]methyl)phenyl]-2-methoxypyridine-3-sulfonamide] was over 7.30; that for `COc1ncc(F)cc1S(=O)(=O)Nc1ccc(F)c(COc2cnc3[nH]ncc3c2C#N)c1F` [Compound 27, N-[3-[([4-cyano-1H-pyrazolo[3,4-b]pyridin-5-yl]oxy)methyl]-2,4-difluorophenyl]-5-fluoro-2-methoxypyridine-3-sulfonamide] was over 7.30.
The value for `COc1ncc(Cl)cc1S(=O)(=O)Nc1ccc(F)c(COc2cnc3[nH]ncc3c2C#N)c1F` [Compound 28, 5-chloro-N-[3-[([4-cyano-1H-pyrazolo[3,4-b]pyridin-5-yl]oxy)methyl]-2,4-difluorophenyl]-2-methoxypyridine-3-sulfonamide] was over 7.30.
